Experimental data: patent publication US20230241167A1, “Use of Caveolin-1 Scaffolding Domain Peptides for Treating Disease and Disorders” (MUSC Foundation for Research Development, priority 2020, published 2023)
Square brackets hold non-standard residues; d marks the D form. Peptide text beside a SMILES is read from it.

Key:
Ang II-infused mice = assay: Angiotensin II-induced congestive heart failure (CHF) model; format: in vivo
Procedure: FIG. 1 provides an overview of an experiment using Full-Length CSD, 82-89, 88-95, and 94-101 (SEQ ID NO:1, SEQ ID NO:2, SEQ ID NO:3, and SEQ ID NO:4 respectively).
Young mice (3 months old) infused with Ang II or vehicle for two weeks received daily i.p. injections of CSD, the indicated subdomains or scrambled CSD (0.8 μmol/kg). Mice were evaluated by Echocardiography for changes in posterior wall thickness (pWTh), fractional shortening (FS), cardiac output (CO), ejection fraction (EF), and isovolumic relaxation time (IVRT). Significant changes are shown as ***p<0.001 for Sham+Veh vs AngII+Veh. Significant suppression of AngII-induced changes is shown as ^p<0.05, ^^p<0.01, and ^^^p<0.001 for AngII+Veh vs AngII+CSD or AngII+CSD subdomains. The number of mice used in each treatment are shown in the HW/BW data.
Young mice (3 months old) infused with Ang II or vehicle for two weeks received daily i.p. injections of the indicated subdomains of CSD. The results of a typical experiment for Col I and HSP47 (FIG. 4) and for microvascular leakage (FIG. 5) are shown in Western blots (2 to 3 mice per group). The data are quantified below (n=4). Significant changes are shown as *p<0.05 and **p<0.01 for Sham+Veh vs Ang II+Veh. Significant suppression of Ang II-induced changes by subdomains are shown as ^p<0.05, […], and ^^^p<0.001 for Ang II+Veh vs Ang II+CSD subdomains.
Young mice (3 months old) infused with Ang II or vehicle for two weeks received daily i.p. injections of W82-89. IgG heavy chain (IgGH) leakage and Col I accumulation are shown in Western blots. The actin loading control is present twice because IgGH was analyzed in the supernatant fraction of heart homogenate while Col I is found in the pellet fraction. In the quantitation (n=4), significant changes are shown as **p<0.01 and ***p<0.001 for Sham+Veh vs Ang II+Veh and ^^p<0.01 and ^^^p<0.001 for reversal of AngII-induced changes by W82-89.

[1] = Plasma level of fluoresceinated W82-89 after i.p. or i.n. delivery; parameters: species or system mice; settings: mouse, in vivo
Procedure: administration of the water soluble CSD peptides is a promising route of delivery. Two mice received a single i.p. injection of 0.8 μmol/kg fluoresceinated W82-89 in 100 μl PBS. Two mice received fluoresceinated W82-89 i.n. (4 μmol/kg in 30 μl PBS (15 μl per nostril)). Using calibrated capillary tubes, 50 μl of blood was collected from the maxillary vein from one mouse from each pair at 3 min, 30 min, 2 h, and 6 h; and from the other mouse from each pair at 10 min, 1 h, 4 h, and 8 h. Blood was immediately diluted with 200 μl PBS/10 mM EDTA, and centrifuged to harvest plasma. The level of W82-89 in the plasma was determined using a fluorescent plate reader.

[2] = in vivo, ip
Procedure: Following a single i.p. dose of the indicated fluorescent peptides, blood was collected from the maxillary vein at intervals and the levels of the peptides in plasma derived from the blood was determined using a fluorescent plate reader.

Area Under the Curve for i.n. delivery relative to i.p. dose [1]: > 1.5 fold
Compound: CC[C@H](C)[C@H](NC(=O)CNC(=O)[C@H](CC(=O)O)NC(=O)[C@@H](CCCCN)NC(=O)[C@@H](CCCCN)NC(C)=O)C(=O)N[C@@H](Cc1c[nH]c2ccccc12)C(=O)N[C@@H](CCCCN)C(=O)N[C@@H](C)C(=O)N[C@@H](CO)C(=O)N[C@@H](Cc1ccccc1)C(=O)N[C@H](CCCCN)C(=O)N[C@H](CCCCN)C(N)=O [W82-89] (Ac-[dK][dK]DGIWKASF[dK][dK]-NH2)
suppression of AngII-induced fibrosis (Col I levels) in the heart (Ang II-infused mice; W82-89 experiment (FIG. 6, 7), daily i.p. injections): suppressed by W82-89 with high significance
suppression of AngII-induced microvascular leakage in the heart (IgG heavy chain level in the tissue) (Ang II-infused mice; Western blot, daily i.p. injections): suppressed by W82-89 with high significance
overall effectiveness of domains in the CHF model (summary of FIGS. 1-7) (Ang II-infused mice; summary, FIG. 8): more effective than 82-89 and at least as effective as 88-95
suppression of the effects of AngII on Heart Weight/Body Weight (HW/BW) ratio (Ang II-infused mice; young mice (3 months) infused with Ang II two weeks, daily i.p. injections): suppressed by W82-89 with high significance
uptake into plasma following i.p. administration [2]: much greater than the uptake of CSD or WCSD
